Assay results: patent US8530382B2, “Anthranilic diamide compositions for propagule coating” (E I du Pont de Nemours and Company, priority 2009, dated 2013)

What was measured:
[1] = system: 2nd instar larvae of Spodoptera frugiperda; test: Laboratory test, 2nd instar larvae of Spodoptera frugiperda on treated soybean leaves; type: in vivo; details: within 96 h
[2] = system: 2nd instar larvae of Spodoptera frugiperda; test: Laboratory test, 2nd instar larvae of Spodoptera frugiperda on maize leaves; type: in vivo; details: within 72 h

Compound | Concentration needed to achieve 50% mortality, relative to the concentration of Compound 2 [1] | Concentration in leaf tissue needed to achieve 100% mortality [2] | Concentration in leaf tissue resulting in 50% mortality [2]
CNC(=O)c1cc(C#N)cc(C)c1NC(=O)c1cc(Br)nn1-c1ncccc1Cl [Compound 1, 3-bromo-1-(3-chloro-2-pyridinyl)-N-[4-cyano-2-methyl-6-[(methylamino)carbonyl]phenyl]-1H-pyrazole-5-carboxamide] | 4-5 times greater | – | –
CNC(=O)c1cc(Cl)cc(C)c1NC(=O)c1cc(Br)nn1-c1ncccc1Cl [Compound 2, 3-bromo-N-[4-chloro-2-methyl-6-[(methylamino)carbonyl]phenyl]-1-(3-chloro-2-pyridinyl)-1H-pyrazole-5-carboxamide] | – | 0.037 μg per g of tissue | 0.033 μg per g of leaf tissue
